The source of these data is patent US6562317B2, “Radioactive embolizing compositions” (Micro Therapeutics, Inc., priority 1997, dated 2003).

A short description of this data set: Cure of prepolymer injected into 0.1 N NaHCO3 aqueous solution simulating a blood environment. The conditions noted are these: cyanoacrylate without iridium, same procedure. The data set is classed as physicochemical. The protocol:
About 0.2 cc of this composition was taken up in a 1 cc syringe through a 21 gage needle and injected into about 150 cc of a 0.1 N NaHCO3 aqueous solution to simulate a blood environment and cure the prepolymer. Upon injection, three small black/gray droplets were formed which immediately fell to the bottom of the container. It took about 15 minutes for the cyanoacrylate to fully cure and to be tack free.

With `C=C(C#N)C(=O)OCCCC` [cyanoacrylate alone, n-butyl cyanoacrylate], the “cure time compared with the iridium composition” value is “cured in approximately the same time”.
